# Results reported in ChEMBL document CHEMBL3991601, “The target landscape of clinical kinase drugs” (Science, 2017).
# The source made the active and inactive calls. Rule as the data show it, for most assays here: actives have a measured Kd and inactives only a lower limit.
# Columns and labels:
# [1] = molecular target: T1, Cyclin-G-associated kinase (Homo sapiens, UniProt O14976)
# T1 sequence (O14976 whole entry): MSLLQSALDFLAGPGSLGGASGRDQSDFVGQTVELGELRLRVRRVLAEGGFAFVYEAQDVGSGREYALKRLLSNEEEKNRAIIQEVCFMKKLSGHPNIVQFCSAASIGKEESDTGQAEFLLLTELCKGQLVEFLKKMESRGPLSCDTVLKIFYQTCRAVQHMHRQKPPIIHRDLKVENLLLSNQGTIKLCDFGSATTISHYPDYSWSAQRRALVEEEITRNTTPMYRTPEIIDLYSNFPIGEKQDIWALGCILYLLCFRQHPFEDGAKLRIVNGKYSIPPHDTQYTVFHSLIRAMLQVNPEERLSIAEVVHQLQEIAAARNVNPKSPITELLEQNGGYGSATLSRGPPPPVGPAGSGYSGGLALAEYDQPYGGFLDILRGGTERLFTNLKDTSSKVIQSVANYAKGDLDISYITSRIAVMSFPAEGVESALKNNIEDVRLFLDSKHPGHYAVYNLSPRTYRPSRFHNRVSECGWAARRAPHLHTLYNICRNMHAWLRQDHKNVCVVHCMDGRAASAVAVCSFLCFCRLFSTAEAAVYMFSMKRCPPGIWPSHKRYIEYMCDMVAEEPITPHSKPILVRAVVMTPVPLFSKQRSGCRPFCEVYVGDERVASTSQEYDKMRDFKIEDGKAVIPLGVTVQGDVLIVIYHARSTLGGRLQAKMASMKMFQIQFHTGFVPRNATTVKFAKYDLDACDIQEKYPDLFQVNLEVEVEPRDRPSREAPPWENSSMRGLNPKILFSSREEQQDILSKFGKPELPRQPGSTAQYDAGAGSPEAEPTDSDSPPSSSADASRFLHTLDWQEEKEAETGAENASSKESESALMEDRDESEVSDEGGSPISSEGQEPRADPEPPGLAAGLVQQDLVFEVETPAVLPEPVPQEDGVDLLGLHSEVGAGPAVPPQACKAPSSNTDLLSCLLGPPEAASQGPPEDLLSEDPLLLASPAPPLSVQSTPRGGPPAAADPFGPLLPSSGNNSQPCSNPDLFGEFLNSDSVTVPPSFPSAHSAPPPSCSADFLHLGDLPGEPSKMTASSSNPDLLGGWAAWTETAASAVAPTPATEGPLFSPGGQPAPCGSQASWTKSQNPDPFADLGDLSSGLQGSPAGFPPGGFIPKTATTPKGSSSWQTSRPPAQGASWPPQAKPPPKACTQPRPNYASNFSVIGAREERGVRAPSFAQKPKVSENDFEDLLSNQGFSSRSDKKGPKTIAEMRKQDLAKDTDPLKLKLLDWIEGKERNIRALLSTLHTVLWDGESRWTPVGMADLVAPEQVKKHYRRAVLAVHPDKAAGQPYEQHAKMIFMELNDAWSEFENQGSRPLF
# Heme oxygenase 2 = molecular target: T2, Heme oxygenase 2 (Homo sapiens, UniProt P30519)
# T2 sequence (P30519 whole entry): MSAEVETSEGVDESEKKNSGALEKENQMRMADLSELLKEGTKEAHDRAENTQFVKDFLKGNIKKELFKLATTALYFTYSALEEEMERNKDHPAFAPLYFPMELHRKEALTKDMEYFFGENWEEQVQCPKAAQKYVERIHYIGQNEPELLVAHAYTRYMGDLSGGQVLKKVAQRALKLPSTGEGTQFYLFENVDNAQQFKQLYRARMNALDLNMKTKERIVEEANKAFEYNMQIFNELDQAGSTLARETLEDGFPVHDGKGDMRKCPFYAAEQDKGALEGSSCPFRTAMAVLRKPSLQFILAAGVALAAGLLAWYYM
# [2] = molecular target: Dual specificity mitogen-activated protein kinase kinase 1 (Homo sapiens, UniProt Q02750)
# [3] = molecular target: cAMP-dependent protein kinase catalytic subunit beta (Homo sapiens, UniProt P22694)
# [4] = molecular target: STE20-like serine/threonine-protein kinase (Homo sapiens, UniProt Q9H2G2)
# [5] = molecular target: T3, Serine/threonine-protein kinase ULK1 (Homo sapiens, UniProt O75385)
# T3 sequence (O75385 whole entry): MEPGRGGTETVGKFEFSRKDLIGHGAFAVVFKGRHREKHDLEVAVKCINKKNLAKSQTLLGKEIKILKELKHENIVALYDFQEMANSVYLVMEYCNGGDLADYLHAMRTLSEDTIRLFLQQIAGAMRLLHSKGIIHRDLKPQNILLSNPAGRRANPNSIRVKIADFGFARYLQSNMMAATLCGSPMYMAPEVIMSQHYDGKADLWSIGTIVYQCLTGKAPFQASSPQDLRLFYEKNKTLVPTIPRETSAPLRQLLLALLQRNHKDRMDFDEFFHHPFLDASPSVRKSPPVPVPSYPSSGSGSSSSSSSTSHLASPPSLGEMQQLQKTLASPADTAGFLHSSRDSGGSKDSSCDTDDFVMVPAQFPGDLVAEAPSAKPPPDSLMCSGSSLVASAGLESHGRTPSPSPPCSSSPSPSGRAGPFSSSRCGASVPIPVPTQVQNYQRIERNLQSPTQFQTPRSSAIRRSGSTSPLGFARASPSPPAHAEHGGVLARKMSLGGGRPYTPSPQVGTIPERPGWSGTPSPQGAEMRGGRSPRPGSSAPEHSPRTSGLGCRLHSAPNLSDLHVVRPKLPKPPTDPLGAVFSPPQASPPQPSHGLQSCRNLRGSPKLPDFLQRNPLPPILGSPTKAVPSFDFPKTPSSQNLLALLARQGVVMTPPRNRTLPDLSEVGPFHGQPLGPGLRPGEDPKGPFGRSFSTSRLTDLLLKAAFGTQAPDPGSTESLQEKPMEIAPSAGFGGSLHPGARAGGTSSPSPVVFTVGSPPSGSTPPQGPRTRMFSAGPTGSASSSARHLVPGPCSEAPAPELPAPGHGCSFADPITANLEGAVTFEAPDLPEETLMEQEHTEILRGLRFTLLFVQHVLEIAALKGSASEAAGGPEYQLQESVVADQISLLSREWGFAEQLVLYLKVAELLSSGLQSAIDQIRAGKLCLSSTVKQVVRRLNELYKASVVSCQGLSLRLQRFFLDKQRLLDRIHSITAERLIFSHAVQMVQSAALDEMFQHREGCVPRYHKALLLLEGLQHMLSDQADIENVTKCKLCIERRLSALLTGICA
# Also: in the data inactive means no Kd found up to 30 µM.
# Sequence of STE20-like serine/threonine-protein kinase (Q9H2G2 whole entry): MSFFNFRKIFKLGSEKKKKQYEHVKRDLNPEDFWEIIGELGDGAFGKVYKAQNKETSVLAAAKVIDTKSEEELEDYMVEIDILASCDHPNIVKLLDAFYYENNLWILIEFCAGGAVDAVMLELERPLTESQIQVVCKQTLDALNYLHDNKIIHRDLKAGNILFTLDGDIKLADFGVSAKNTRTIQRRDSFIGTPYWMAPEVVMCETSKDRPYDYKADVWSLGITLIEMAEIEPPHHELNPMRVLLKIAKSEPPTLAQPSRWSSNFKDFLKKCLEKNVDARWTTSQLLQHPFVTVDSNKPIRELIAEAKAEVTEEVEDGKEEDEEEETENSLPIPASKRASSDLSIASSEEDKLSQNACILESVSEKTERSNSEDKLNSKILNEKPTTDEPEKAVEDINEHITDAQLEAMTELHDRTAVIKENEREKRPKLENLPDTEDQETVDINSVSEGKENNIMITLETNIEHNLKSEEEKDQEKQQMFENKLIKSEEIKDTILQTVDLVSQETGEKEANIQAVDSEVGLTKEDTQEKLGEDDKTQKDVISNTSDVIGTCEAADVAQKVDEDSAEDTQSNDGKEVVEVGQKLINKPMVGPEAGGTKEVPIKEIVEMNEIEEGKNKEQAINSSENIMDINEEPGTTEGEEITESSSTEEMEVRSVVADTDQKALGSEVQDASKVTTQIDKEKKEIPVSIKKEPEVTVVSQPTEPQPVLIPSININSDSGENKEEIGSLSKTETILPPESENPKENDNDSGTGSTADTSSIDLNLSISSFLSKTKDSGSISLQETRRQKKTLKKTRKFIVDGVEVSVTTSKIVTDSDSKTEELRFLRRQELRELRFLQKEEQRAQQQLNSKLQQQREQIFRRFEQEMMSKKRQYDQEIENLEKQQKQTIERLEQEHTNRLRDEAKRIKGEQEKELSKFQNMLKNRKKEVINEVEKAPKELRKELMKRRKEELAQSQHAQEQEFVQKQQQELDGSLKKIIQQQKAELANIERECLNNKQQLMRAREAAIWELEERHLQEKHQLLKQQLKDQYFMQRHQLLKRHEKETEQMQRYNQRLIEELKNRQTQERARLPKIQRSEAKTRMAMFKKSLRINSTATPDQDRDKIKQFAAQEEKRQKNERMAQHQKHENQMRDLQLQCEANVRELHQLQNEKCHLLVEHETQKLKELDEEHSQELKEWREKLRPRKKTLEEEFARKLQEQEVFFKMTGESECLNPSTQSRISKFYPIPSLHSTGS
# Sequence of Dual specificity mitogen-activated protein kinase kinase 1 (Q02750 whole entry): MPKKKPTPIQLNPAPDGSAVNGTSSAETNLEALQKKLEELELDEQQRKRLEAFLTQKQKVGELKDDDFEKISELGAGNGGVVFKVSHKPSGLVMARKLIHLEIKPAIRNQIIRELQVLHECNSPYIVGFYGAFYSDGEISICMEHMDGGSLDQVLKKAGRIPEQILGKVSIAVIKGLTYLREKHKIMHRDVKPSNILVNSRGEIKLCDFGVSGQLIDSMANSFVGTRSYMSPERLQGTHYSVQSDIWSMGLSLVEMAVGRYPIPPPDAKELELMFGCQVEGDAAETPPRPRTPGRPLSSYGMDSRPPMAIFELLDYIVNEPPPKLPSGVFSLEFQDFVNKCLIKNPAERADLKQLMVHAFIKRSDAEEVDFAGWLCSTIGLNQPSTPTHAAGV
Compound,Kd [1],Kd (Heme oxygenase 2),Kd [2],Kd [3],Kd [4],Kd [5]
CCS(=O)(=O)N1CC(CC#N)(n2cc(-c3ncnc4[nH]ccc34)cn2)C1 [BARICITINIB],,> 30 µM (inactive),> 30 µM (inactive),> 30 µM (inactive),> 30 µM (inactive),0.81 µM (active)
CN1N=C(N)c2cn([C@@H]3O[C@H](COP(=O)(O)O)[C@@H](O)[C@H]3O)c3ncnc1c23 [TRICIRIBINE PHOSPHATE],> 30 µM (inactive),> 30 µM (inactive),> 30 µM (inactive),> 30 µM (inactive),> 30 µM (inactive),> 30 µM (inactive)
CNC(=O)c1cc(Oc2ccc(NC(=O)Nc3ccc(Cl)c(C(F)(F)F)c3)c(F)c2)ccn1 [REGORAFENIB],> 30 µM (inactive),> 30 µM (inactive),> 30 µM (inactive),> 30 µM (inactive),> 30 µM (inactive),> 30 µM (inactive)
CNS(=O)(=O)Nc1nccc(Cc2c(C)c3ccc(Oc4ncccn4)cc3oc2=O)c1F [AVUTOMETINIB],> 30 µM (inactive),> 30 µM (inactive),,> 30 µM (inactive),> 30 µM (inactive),> 30 µM (inactive)
CCCS(=O)(=O)Nc1ccc(F)c(C(=O)c2c[nH]c3ncc(-c4ccc(Cl)cc4)cc23)c1F [VEMURAFENIB],> 30 µM (inactive),> 30 µM (inactive),> 30 µM (inactive),> 30 µM (inactive),> 30 µM (inactive),> 30 µM (inactive)
COc1cc2nccc(Oc3ccc(NC(=O)NC4CC4)c(Cl)c3)c2cc1C(N)=O [LENVATINIB],,> 30 µM (inactive),,> 30 µM (inactive),3.85 µM (active),> 30 µM (inactive)
Cc1cc2c(F)c(Oc3ncnn4cc(OC[C@@H](C)OC(=O)[C@H](C)N)c(C)c34)ccc2[nH]1 [BRIVANIB ALANINATE],> 30 µM (inactive),> 30 µM (inactive),> 30 µM (inactive),> 30 µM (inactive),9.49 µM (active),> 30 µM (inactive)
Nc1nc(N)c2nc(-c3cccc(O)c3)c(-c3cccc(O)c3)nc2n1 [TG100-115],> 30 µM (inactive),> 30 µM (inactive),,,,
CC(=O)Nc1cccc(-n2c(=O)n(C3CC3)c(=O)c3c(Nc4ccc(I)cc4F)n(C)c(=O)c(C)c32)c1 [TRAMETINIB],> 30 µM (inactive),> 30 µM (inactive),,> 30 µM (inactive),> 30 µM (inactive),> 30 µM (inactive)
O=C(Nc1cccc(Cl)c1)Nc1ncc(CCNc2ncnc3ccsc23)s1 [SNS-314],> 30 µM (inactive),> 30 µM (inactive),,> 30 µM (inactive),,> 30 µM (inactive)
CN1CCN(c2ccc3nc(-c4c(N)c5c(F)cccc5[nH]c4=O)[nH]c3c2)CC1 [DOVITINIB],,> 30 µM (inactive),,,,
Cn1ncc(Cl)c1-c1cc(C(=O)N[C@H](CN)Cc2cccc(F)c2)sc1Cl [AFURESERTIB],> 30 µM (inactive),> 30 µM (inactive),> 30 µM (inactive),0.211 µM (active),> 30 µM (inactive),
CCc1cnn2c(NCc3ccc[n+]([O-])c3)cc(N3CCCC[C@H]3CCO)nc12 [DINACICLIB],> 30 µM (inactive),> 30 µM (inactive),,> 30 µM (inactive),> 30 µM (inactive),> 30 µM (inactive)
Cc1cn(-c2cc(NC(=O)c3ccc(C)c(Nc4nccc(-c5cccnc5)n4)c3)cc(C(F)(F)F)c2)cn1 [NILOTINIB],,> 30 µM (inactive),,,,
OCCn1cc(-c2cnc3nnn(Cc4ccc5ncccc5c4)c3n2)cn1 [PF-04217903],> 30 µM (inactive),> 30 µM (inactive),,> 30 µM (inactive),> 30 µM (inactive),> 30 µM (inactive)
CC(C)Nc1cc(-c2c[nH]c(C(=O)N[C@H](CO)c3cccc(Cl)c3)c2)c(Cl)cn1 [ULIXERTINIB],> 30 µM (inactive),> 30 µM (inactive),,> 30 µM (inactive),> 30 µM (inactive),> 30 µM (inactive)
COC(=O)[C@@]1(O)C[C@H]2O[C@]1(C)n1c3ccccc3c3c4c(c5c6ccccc6n2c5c31)C(=O)NC4 [K-252A],1.27 µM (active),> 30 µM (inactive),,> 30 µM (inactive),3.3 µM (active),> 30 µM (inactive)

# Continued, values first:
Kd [1],Kd (Heme oxygenase 2),Kd [2],Kd [3],Kd [4],Kd [5],Compound
> 30 µM (inactive),> 30 µM (inactive),> 30 µM (inactive),> 30 µM (inactive),> 30 µM (inactive),> 30 µM (inactive),C[C@@H](Nc1cc(F)cc(F)c1)c1cc(C(=O)N(C)C)cc2c(=O)cc(N3CCOCC3)oc12 [AZD-8186]
> 30 µM (inactive),> 30 µM (inactive),> 30 µM (inactive),> 30 µM (inactive),> 30 µM (inactive),> 30 µM (inactive),Cc1cc([C@@H](C)Nc2ccccc2C(=O)O)c2nc(N3CCOCC3)cc(=O)n2c1 [AZD-6482]
0.05 µM (active),> 30 µM (inactive),> 30 µM (inactive),> 30 µM (inactive),> 30 µM (inactive),> 30 µM (inactive),O=C(Nc1ccc(-c2ccnc(Nc3ccc(N4CCOCC4)cc3)n2)cc1)C1CCCN1 (centres undefined) [XL-019]
> 30 µM (inactive),> 30 µM (inactive),> 30 µM (inactive),> 30 µM (inactive),> 30 µM (inactive),,Cc1cc(Nc2cc(N3CCN(C)CC3)nc(/C=C/c3ccccc3)n2)n[nH]1 [ENMD-2076]
,> 30 µM (inactive),,,,,CCn1c(-c2nonc2N)nc2c(C#CC(C)(C)O)ncc(OC[C@H]3CCCNC3)c21 [GSK-690693]
0.196 µM (active),> 30 µM (inactive),> 30 µM (inactive),,,> 30 µM (inactive),Cc1nc(N)sc1-c1ccnc(Nc2ccc(N3CCOCC3)cc2)n1 [CYC-116]
> 30 µM (inactive),> 30 µM (inactive),> 30 µM (inactive),> 30 µM (inactive),> 30 µM (inactive),,CNC(=O)c1ccc(C)c(-n2c(C)cc(OCc3ccc(F)cc3F)c(Br)c2=O)c1 [PH-797804]
